# Measured values: a melting point compilation (Tetko et al.; mined from patent text by program, amines drawn as free bases though some values may be those of a salt)
row,SMILES,melting point
1,CCc1cccc(N2C(c3ccc(Cl)cc3)=NS(=O)(=O)c3cnccc32)c1,227 to 229 °C
2,O=C(O)C1CCN(c2ncc(NS(=O)(=O)C(F)(F)F)c(NCc3ccccc3)n2)CC1,160 °C
3,O=C1CCC(c2ccc(N3C(=O)c4ccccc4C3=O)cc2)CC1,150 to 152 °C
4,N#Cc1cnn2c(C(F)(F)F)cc(-c3cccc(C(F)(F)F)c3)nc12,192 °C
5,COc1ccc(OC)c2c1C=CNC(=O)C2,188 to 191 °C
6,CC(C)Oc1ccc(-c2nc(=O)c3ccccc3s2)cn1,110 °C
7,Nc1nc2ccccc2n1-c1cccc(-c2cscc2CO)c1,106 to 108 °C
8,Cc1csc(NC(=O)c2cn(-c3ccccc3)c3ccccc3c2=O)n1,252 to 254 °C
9,C[Si](C)(C)C#Cc1ccc2c(c1)C(c1ccccc1)=NCc1c(C(=O)OCC(F)(F)F)ncn1-2,107 to 110 °C
10,CC(=O)OCC(=O)C1(O)C(C)CC2C3CC(C)C4=CC(=O)CCC4(C)C3=CCC21C (stereo unspecified),197 to 199 °C
11,NC(=O)N1C(=O)C(C(=O)c2ccco2)c2nc(Cl)ccc21 (stereo unspecified),248 to 260 °C
12,OCc1cnn(-c2ccccc2)c1-c1ccccc1,147 to 148 °C
13,CCCCCCCC1(C(=O)OC)CCC(C2CCC(CCC)CC2)CC1 (stereo unspecified),49 °C
14,CC1=N/C(=C\c2c[nH]c3ncccc23)C(=O)N1,277 to 281 °C
15,CCCCCCC(Oc1c(Br)cc(-c2ccc(-c3c(Cc4ccccc4)oc4ccccc34)cc2)cc1Br)C(=O)O (stereo unspecified),72 to 74 °C
16,NC(=O)C(CCC(=O)O)N1C(=O)c2cccc(NCc3ccco3)c2C1=O (stereo unspecified),120 to 122 °C
17,COc1ccc(S(=O)(=O)N(CC(N)=O)c2ccc(Cl)cc2C(O)c2c(Cl)cccc2Cl)cc1OC (stereo unspecified),128 °C
18,CON(C)C(=O)CCCCCCNC(=O)c1cn2c3c(cccc13)CCC2,61 to 62 °C
19,CC(C)c1ccc(C(=O)O)cc1S(N)(=O)=O,245 °C
20,Brc1ccc2c(c1)COCO2,43 to 47 °C
21,CCOC(=O)Cn1c(=O)[nH]c2ccc(C(=O)c3c(-c4ccccc4)c(OC)c4ccccn34)cc2c1=O,221 °C
22,CCOC(=O)c1nc(Br)n2c1c(=O)n(C)c1cc(C(F)(F)F)ccc12,205 to 207 °C
23,COC(=O)CNC(=O)C(CS)NC(=O)CNC(=O)CS (stereo unspecified),149 to 151 °C
24,N#Cc1cncc(I)c1O,> 245 °C

row,SMILES,melting point
1,COc1cc2c(cc1OC)NC(C)C(=O)N2 (stereo unspecified),151 °C
2,FC(F)(F)c1ccc2nc[nH]c2c1,89 to 91 °C
3,Cc1ccc(S(=O)(=O)N2CCCC2c2cccnc2)cc1 (racemic),112 °C
4,Cc1ncnn1-c1cc(F)ccc1C#N,120 to 121 °C
5,Cn1nc(-c2ccccc2)c(Sc2ccccc2)c1-c1ccccc1,109 to 110 °C
6,CC(C(=O)c1ccc(OCc2ccccc2)c(OCc2ccccc2)c1)N1CCC(n2c(=O)[nH]c3ccccc32)CC1 (stereo unspecified),87 to 90 °C
7,CC(C)Cn1c(=O)n(C)c(=O)c2c(SCCCC(=O)O)c(Cc3cccc4ccccc34)sc21,172 to 173 °C
8,CCCc1c(OCCCCCCc2cccc(OCCCCCCCCC(=O)O)c2CCC(=O)O)ccc2c1OCCC2=O,63 to 65 °C
9,COC(=O)c1sc2cncc(Oc3ccc(Cl)cc3)c2c1C,140 to 141 °C
10,CC(C)CC(S)C(=O)NC1(C(=O)NC(Cc2ccc(-c3ccc(-c4cccc5ccccc45)cc3)cc2)C(=O)O)CCCC1 (stereo unspecified),187 to 189 °C
11,CC(C)(C)c1cc(C(=NN)c2ccccc2)cc(C(C)(C)C)c1O,97.4 to 117 °C
12,COc1ccc(C2=C(C#N)C(c3ccccc3Cl)c3c[nH]nc3N2)cc1 (stereo unspecified),124 °C
13,COC(=O)c1cc[nH]c1,78 to 81 °C
14,Cc1nc(N2CCNC2=O)sc1C(=O)NCc1ccccc1,226 to 228 °C
15,Cc1cc(C)c2c(O)c(O)c(O)nc2c1,280 to 282 °C
16,CN1C(=O)N(C)C(=O)C2(CC=C3C(CCC4=Cc5c(cnn5-c5ccc(F)cc5)CC43C)O2)C1=O (stereo unspecified),188 to 189 °C
17,CC1(C)[C@@H](CN2CCCC2)CC[C@@]1(C)NCC(=O)N1C[C@@H](F)C[C@H]1C#N,108 to 112 °C
18,COC(=O)[C@H](Cc1ccc(OC(C)=O)c(OC(C)=O)c1)NC(=O)CNC(=O)OCc1ccccc1,130 to 131 °C
19,OCn1c2ccccc2c2ccccc21,127 to 129 °C
20,NC(=O)c1cccc(C(N)=O)c1N,284 to 288 °C
21,COc1ccc(C(=O)CN2CCN(C3CCCCO3)C2=O)cc1OC (stereo unspecified),120 °C
22,CNC(=O)c1cccnc1N,140 to 142 °C
23,CCN(CC)C(=S)Oc1ccc2c(c1)Oc1ccccc1S2,121 to 123 °C
24,COC(=O)C(=O)c1ccc(OCC(=O)c2cccc3ccccc23)cc1,99 to 100 °C

row,SMILES,melting point
1,O=C(Nc1ccc(Cl)c(Cl)c1)NS(=O)(=O)c1ccc2c(c1)C(O)CO2 (stereo unspecified),109 to 112 °C
2,CCCCn1c(CC)ccc1C(=O)c1cccc(N)c1,71 to 77 °C
3,CCN(CC)C(=O)Nc1ccc(S(=O)(=O)N2C(=O)C(NCCO)(c3ccccc3Cl)c3cc(Cl)ccc32)cc1 (stereo unspecified),192 to 193 °C
4,Cn1c(-c2ccccc2F)nnc1S(C)=O (stereo unspecified),95 to 97 °C
5,CCC(c1ccccc1)(c1ccccc1)c1ccnc(C(N)=O)c1,144 to 147 °C
6,Nc1cccc(C(CC2CCCC2)C(=O)Nc2nccs2)c1 (stereo unspecified),158 to 160 °C
7,COc1ccc(C(=C/C=C/C(=O)NCCCc2cccc3ccncc23)c2ccc(OC)cc2)cc1,115 to 118 °C
8,CC(C)COc1c(-c2ccc(S(C)(=O)=O)cc2)cnn(-c2cccc(Cl)c2)c1=O,166 to 169 °C
9,COc1cc(C2CCC(c3cc(OC)c(OC)c(OC)c3)C2O)cc(OC)c1OC (stereo unspecified),138 to 140 °C
10,CC(=O)Nc1cc(C)c2c(c1C)CC(C)(C)O2,161 to 162 °C
11,NNC(=O)C1(Cl)CC1(Cl)Cl (stereo unspecified),122 to 123 °C
12,Cc1c(Nc2c(C#N)cnc3sc(CCC(=O)N4CCCC4)cc23)ccc2[nH]ccc12,175 °C
13,CN(C)C=C1C(=O)N(c2ccccc2)C(=O)N1C,131 to 133 °C
14,Cn1c(COc2ccc(CC3SC(=O)NC3=O)cc2)nc2ccc(Oc3cccc(NC(=O)Nc4ccc(F)cc4)c3)cc21 (stereo unspecified),169 to 171 °C
15,CCCCc1oc2ccccc2c1C(Sc1nc2ccccc2s1)c1ccc(-c2ccc(O)cc2)cc1 (stereo unspecified),130 to 132 °C
16,CC(C)(O)c1ccc(-c2ccc(N3C[C@H](Cn4ccnn4)OC3=O)cc2F)cn1,180 °C
17,CCCCCCCCCCCCCCCCNC(=O)c1cc(OCCS(C)(=O)=O)c2ccccc2c1O,107 to 109 °C
18,N#CC1(CCc2ccccc2)CCCCCN1C(=O)c1ccccc1 (stereo unspecified),116 to 118 °C
19,COC(=O)C(CC(=O)N1CCOCC1)Oc1ccccc1 (stereo unspecified),83 to 84 °C
20,CC(C)c1nn(-c2ccc(C(F)(F)F)cn2)cc1CCCCOc1nn(-c2ccccc2)cc1CC(=O)O,119 to 120 °C
21,O=C(O)c1ccc(-c2cc3ccccc3[nH]c2=S)cc1,> 300 °C
22,CCC(C(C)=CC(CNC(=O)c1nc[nH]c1C)=NO)[N+](=O)[O-] (stereo unspecified),133 to 136 °C
23,CC(=O)c1cc(C)cc(C)c1NC(=O)c1sccc1S(=O)(=O)Nc1onc(C)c1C,158 to 160 °C
